Measured values from ChEMBL document CHEMBL1649210, “Identification of the aminoglycoside resistance determinants armA and rmtC among non-Typhi Salmonella isolates from humans in the United States” (2009).

Key:
[1] = (§1) Antimicrobial activity against Salmonella enterica serotype Stanley isolate AM04864 expressing armA rRNA methyltransferase gene by broth microdilution method; assay type: functional, Salmonella enterica subsp. enterica serovar Stanley
[2] = (§2) Antimicrobial activity against Salmonella enterica serotype Virchow isolate AM23818 expressing rmtC rRNA methyltransferase gene by broth microdilution method; assay type: functional, Salmonella enterica subsp. enterica serovar Virchow
[3] = test system: Salmonella enterica subsp. enterica serovar Stanley; assay: as §1; assay type: functional
[4] = test system: Salmonella enterica subsp. enterica serovar Virchow; assay: as §2; assay type: functional

## NCC[C@H](O)C(=O)N[C@@H]1C[C@H](N)[C@@H](O[C@H]2O[C@H](CN)[C@@H](O)[C@H](O)[C@H]2O)[C@H](O)[C@H]1O[C@H]1O[C@H](CO)[C@@H](O)[C@H](N)[C@H]1O [AMIKACIN]
[1]
  MIC: > 64 µg/mL
[2]
  MIC: > 64 µg/mL

## NC[C@H]1O[C@H](O[C@H]2[C@H](O)[C@@H](O[C@H]3O[C@H](CO)[C@@H](O)[C@H](N)[C@H]3O)[C@H](N)C[C@@H]2N)[C@H](O)[C@@H](O)[C@@H]1O [KANAMYCIN]
[1]
  MIC: > 64 µg/mL
[2]
  MIC: > 64 µg/mL

## GENTAMICIN
[3]
  MIC: > 16 µg/mL
[4]
  MIC: > 16 µg/mL
